# Data published in paper PMC6925144, “A prospective compound screening contest identified broader inhibitors for Sirtuin 1” (Scientific Reports, 2019).
# Like-named read-outs stand apart in the source and are kept apart here.
# Tests used:
# [1] = tested on: Sirtuin 1; conditions: cited from earlier work
# [2] = tested on: human leukemia U937 cells; parameters: method as in PMID 18348515; conditions: cited from earlier work
# [3] = molecular target: T1, human SIRT1 (Homo sapiens, UniProt Q96EB6); assay: Thermal shift assay (TSA) of Sirtuin 1 in the presence of NAD+; assay type: binding; conditions: with NAD+, n = 4
# T1 construct: host or cells: Escherichia coli M15
# T1 sequence (Q96EB6 with tags, fused parts or gaps): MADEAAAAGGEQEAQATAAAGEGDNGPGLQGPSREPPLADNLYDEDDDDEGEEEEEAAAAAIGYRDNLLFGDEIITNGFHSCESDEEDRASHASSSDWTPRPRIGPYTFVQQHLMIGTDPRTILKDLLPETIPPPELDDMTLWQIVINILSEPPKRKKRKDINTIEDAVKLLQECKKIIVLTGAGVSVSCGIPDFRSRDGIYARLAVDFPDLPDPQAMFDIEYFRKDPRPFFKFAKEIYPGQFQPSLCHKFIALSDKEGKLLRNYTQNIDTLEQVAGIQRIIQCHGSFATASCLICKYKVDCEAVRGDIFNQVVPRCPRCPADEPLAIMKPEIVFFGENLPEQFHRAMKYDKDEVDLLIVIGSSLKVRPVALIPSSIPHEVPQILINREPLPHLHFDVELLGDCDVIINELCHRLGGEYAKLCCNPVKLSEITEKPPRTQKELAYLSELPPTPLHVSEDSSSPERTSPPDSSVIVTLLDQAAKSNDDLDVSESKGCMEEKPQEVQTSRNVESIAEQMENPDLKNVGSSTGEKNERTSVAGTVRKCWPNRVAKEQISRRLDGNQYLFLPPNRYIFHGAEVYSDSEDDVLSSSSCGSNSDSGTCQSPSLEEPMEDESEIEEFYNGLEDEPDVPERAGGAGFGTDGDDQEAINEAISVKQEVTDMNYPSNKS
# Description: (§1) A total of 3,192 compounds extracted from the proposed lists were first screened by thermal shift assay (TSA), which determined a melting temperature shift (ΔTm) of Sirtuin 1 upon the addition of a test compound at a concentration of 10 µM (n = 1) with primary hit criteria of ΔTm > 0.45 K or ΔTm < −1.5 K. Primary hits (48 compounds) were retested in the same assay at three concentrations (5, 10, 20 µM, n = 4) for hit confirmation and for dose-dependency check. Secondary hits (41 compounds) were checked their selectivity for Sirtuin 1 based on counterscreening on unrelated protein targets (bovine carbonic anhydrase (CA) and recombinant SH2 domain of hABL1 kinase (ABL1)) at three different concentrations (5, 10, 20 µM, n = 4), which yielded 38 hit compounds, hereafter referred to as TSA hits. The TSA screening above was conducted in the absence of NAD^+. As noted, the structure of Sirtuin 1 is different in the presence of NAD^+ and substrate. The chemical profile of TSA hits found from the different conditions could be different. […] As a result, 39 TSA hits were found. Regardless of the presence of NAD^+, 29 compounds were shared in both TSA hits.
# (§2) Table S1. Buffer concentrations used for preparing buffer composition matrix screening plates.
# (§3) Buffer Plate 1 (mM) Plate 2 (mM)
# (§4) Selection of the optimal buffer composition was based on balancing several criteria including undistorted protein melting curve, maximized melting temperature stability of SIRT1 protein and maximized melting temperature shift induced by the acetylated histone H3K9 peptide (KQTARK(Ac)STGG, a natural substrate of SIRT1). Thermal shift experiments were done at 120 µM H3K9 in the presence of 500 µM NAD+, a co-factor of SIRT1. Separate additions of H3K9 or […]
# result, the buffer consisting of 20 mM Tris-HCl pH 8 and 50 mM NaCl was selected for the screening. Purified SIRT1 protein was pre-mixed with SYPRO Orange dye (Thermo Fischer Scientific, Cat. S6650, 5000x stock) to prepare a master mix at 400 µg/mL protein and 10x dye concentration. Tested compounds were added to the protein-dye master mix at 10 µM (1% final DMSO concentration) and incubated for 1 h at 4 °C in MicroAmp® optical 384-well reaction plates (ThermoFisher, Cat. 4309849) sealed with optical sealing film (ThermalSeal RT2, Excel Scientific, Cat. TS-RT2). The volumes of all reaction mixtures were 10 µL (4 µg SIRT1 per well). The reaction plates were then kept at ambient temperature (22-24 °C) for additional 15 minutes to ensure protein-compound interactions. Thermal scanning was performed by raising temperature to 35 °C at 1.6 °C/min without signal detection followed by 35 °C to 75 °C temperature ramp at 0.05 °C/s with constant fluorescence intensity reading at 1 sec intervals using EX470/EM623 nm filter set. Primary screening of the whole test set of 3,192 compounds was carried out in singletons. The raw data of dye fluorescence intensity change upon protein melt were exported using the ViiA7 RUO software (Applied Biosystems/ThermoFischer Scientific). Further data visualization, curve fitting, melting temperature calculations on the raw fluorescence data were performed using custom-made Microsoft Excel scripts developed by us. The peak of the first derivative for the fluorescence curve was used to define melting temperature (Tm). Averaged Tm values for the control wells (64 wells per plate), containing only the protein, dye and 1% DMSO were used as a reference point to determine melting temperature shifts (ΔTm). Hit selection criteria was ΔTm > 0.45 °C or ΔTm < −1.5 °C. All primary hits were re-tested in the same assay at 3 concentrations (20, 10 and 5 µM, n = 4) for hit confirmation
# [4] = molecular target: T1, human SIRT1; assay: SIRT-Glo luminogenic enzymatic inhibitory assay (inhibition rate and IC50); assay type: biochemical
# Description: Note that the inhibitory assay was conducted with NAD^+.
# Biochemical enzymatic assay for SIRT1
# Luminogenic SIRT-Glo™ assay kit was purchased from Promega Corp. (Madison, WI; USA,
# Enzymatic activity of SIRT1 in the presence of test compounds
# the SIRT-Glo™ assay according to the manufacturer’s instructions (Promega Technical Manual for
# SIRT-Glo™ Assay and Screening System). Briefly, the enzymatic reactions were performed in assay
# SIRT1 was added to 3 ng/µL concentration to the wells containing tested compounds diluted in the
# DMSO concentration) and the reactions (9 µL per well) were pre-incubated for 30 min at ambient
# The enzymatic reactions were started by adding 9 µL of SIRT-Glo™
# reagent (proprietary composition undisclosed by the vendor) to each assay well.
# vigorous mixing using VibraTranslator (Union Scientific, USA) to ensure homogeneity, the plate
# was incubated at the ambient temperature for 40 min. The final reaction volumes per well of a
# 384-well plate were 18 µL (1.5 ng/µL SIRT1: 20 nM). Luminescence signals were measured using
# Omega PolarStar microplate reader (BMG Labtech, Ortenberg, Germany). Luminescence values
# from the control plate wells with no added enzyme were used as a baseline.
# The eight-point IC50 curve was built using 3x serial dilution
# Primary compound dilutions were performed
# in DMSO and each concentration was tested in quadruplicate. Assay data was analyzed in GraphPad
# Prism,6 using Prism's built-in sigmoidal dose-response curve-fit algorithm and default settings of the
# fit. Each error bar represents a standard deviation (SD) of inhibition rates for each concentration.
# Dose-response curve (DRC) for SIRT1 inhibition by 20 compounds under SIRT-Glo™
# assay conditions described in Section C of this supporting information. The determined IC50 value
# The eight-point IC50 curves were built using 3x serial
# dilution starting from compound concentration of 100 μM. Primary compound dilutions were
# performed in DMSO and each concentration was tested in quadruplicate. Assay data was analyzed in
# GraphPad Prism,6 using Prism's built-in sigmoidal dose-response curve-fit algorithm and default
# Each bar represents a standard deviation (SD) of inhibition rates for each concentration.
# [5] = molecular target: T1, human SIRT1; assay: Thermal shift assay (TSA) of Sirtuin 1 without NAD+; assay type: binding; conditions: without NAD+; for ΔTm at 10 µM: read-out: ΔTm Sirtuin 1
# Description: as §1
# B. Setup and validation of Protein Thermal Shift Assay.
# All tested compounds were obtained from the screening compound collection of Enamine Ltd.
# (Kiev, Ukraine). Stock solutions of the tested compounds were prepared at 10 mM in 100% DMSO and were stored at −20 °C until use. All thermal shift assay (TSA) experiments with SIRT1 protein were performed using ViiA™7 real-time PCR System equipped with 384-well heat block (Applied Biosystems, USA). General TSA methodology was adopted from the literature3-5 and experimentally modified in order to optimize conditions for measuring SIRT1 melting temperature shifts upon interaction with small molecules. To define the optimal buffer composition for the TSA procedure, a matrix of common buffers combined on a 96-well plate (Figure S3) was tested in thermal melt experiment on a 384-well plate (each buffer composition in quadruplicate). In addition, each buffer composition shown on Figure S3 was tested at two different buffering component concentrations, as listed in Table S1, resulting in two 384-well plate buffer screening experiments and the total of 192 different buffer compositions tested.
# Figure S3. Matrix plate of the buffer compositions assessed for TSA optimization.
# (1 picture or pasted object on this page, not shown here)
# as §2, §3, §4
# result, the buffer consisting of 20 mM Tris-HCl pH 8 and 50 mM NaCl was selected for the screening. Purified SIRT1 protein was pre-mixed with SYPRO Orange dye (Thermo Fischer Scientific, Cat. S6650, 5000x stock) to prepare a master mix at 400 µg/mL protein and 10x dye concentration. Tested compounds were added to the protein-dye master mix at 10 µM (1% final DMSO concentration) and incubated for 1 h at 4 °C in MicroAmp® optical 384-well reaction plates (ThermoFisher, Cat. 4309849) sealed with optical sealing film (ThermalSeal RT2, Excel Scientific, Cat. TS-RT2). The volumes of all reaction mixtures were 10 µL (4 µg SIRT1 per well). The reaction plates were then kept at ambient temperature (22-24 °C) for additional 15 minutes to ensure protein-compound interactions. Thermal scanning was performed by raising temperature to 35 °C at 1.6 °C/min without signal detection followed by 35 °C to 75 °C temperature ramp at 0.05 °C/s with […]
# [6] = tested on: bovine carbonic anhydrase (CA); assay: TSA counterscreening on unrelated protein, carbonic anhydrase; assay type: binding; conditions: without NAD+
# Description: as §1
# [7] = molecular target: T2, recombinant SH2 domain of hABL1 kinase (ABL1) (Homo sapiens, UniProt P00519); assay: TSA counterscreening on unrelated protein, ABL1 SH2 domain; assay type: binding; conditions: without NAD+
# T2 construct: recombinant SH2 domain of hABL1 kinase (ABL1)
# T2 sequence (P00519 127-217 limits assumed): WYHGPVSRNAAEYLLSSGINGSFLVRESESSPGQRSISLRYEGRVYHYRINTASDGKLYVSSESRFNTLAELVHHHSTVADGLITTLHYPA
# Description: as §1
# [8] = final Sirtuin 1 concentration 20 nM, n = 4, read-out: IC50
structure (smiles),measurement,setting,value
O=C1/C(=C/c2cc(Br)c(O)c(Br)c2)CCC/C1=C\c1cc(Br)c(O)c(Br)c1 [CHEMBL260149],Inh. rate@25 μM,[1]; 25 μM,0.95 (Inh. rate@25 μM: 50%)[57]
same,effect on apoptosis induction and granulocytic differentiation,[2],high differentiating activity
O=C(CNC(=O)c1nc(-c2ccccc2)no1)Nc1ccccc1 [CHEMBL449117],Inhibition rate@200 μM,[1]; 200 μM,0.64 (Inhibition rate@200 μM: 28%)[69]
CC1(C)CC(=O)C2=C(C1)N(NC(=O)c1ccncc1)C1=C(C(=O)CC(C)(C)C1)C2c1ccccc1OCc1ccccc1 [CHEMBL1762050],Inh. rate@50 μM,[1]; 50 μM,0.60 (Inh. rate@50 μM = 70%)[71]
CCNc1ncnc2cc(C(N)=O)sc12 [CHEMBL2332048],IC50,[1],> 50 µM
COc1ccc(CNCc2c(-c3nnc(SC(C)C)n3-c3ccccc3)n(C)c3ccc(F)cc23)cc1 [CHEMBL2436120],Inh. rate@40 μM,[1]; 40 μM,0.65 (Inh. rate@40 μM: 70%)[70]
CC(C)(C)NS(=O)(=O)c1ccc2c(c1)Nc1ccccc1CC2 [CHEMBL3222149],Inh. rate@100 μM,[1]; 100 μM,0.65 (Inh. rate@100 μM = 10%)[72]
COc1ccc(NC(=O)CSc2nnc(Nc3ccc(SC(F)F)cc3)s2)cc1OC [Compound Z21813138],"ΔTm, additional TSA experiment",[3],0.32 K
same,IC50,[4]; [8],7.7 µM
O=C1/C(=C\c2cc(Br)cc(Br)c2O)CC/C1=C\c1cc(Br)cc(Br)c1O [Compound Z56773446],ΔTm at 5 µM,[5],0.4 °C
same,ΔTm at 10 µM,[5],0.6 °C
same,ΔTm at 20 µM,[5],1 °C
same,"ΔTm, additional TSA experiment",[3],−0.05 K
same,ΔTm CA,[6]; 5 μM,0.2 K
same,ΔTm CA,[6]; 10 μM,0.5 K
same,ΔTm CA,[6]; 20 μM,0.5 K
same,ΔTm at 5 µM,[7],0 °C
same,ΔTm at 10 µM,[7],0.1 °C
same,ΔTm at 20 µM,[7],0.2 °C
same,IC50,[4]; [8],4.1 µM
O=C1NC(=S)NC(=O)C1=Cc1cn(-c2ccccc2)nc1-c1cc2ccccc2o1 [Compound Z62466600],ΔTm at 5 µM,[5],0.2 °C
same,ΔTm at 10 µM,[5],0.3 °C
same,ΔTm at 20 µM,[5],0.5 °C
same,"ΔTm, additional TSA experiment",[5]; n = 4,0.87 K
same,ΔTm CA,[6]; 5 μM,0.0 K
same,ΔTm CA,[6]; 10 μM,0.0 K
same,ΔTm CA,[6]; 20 μM,0.0 K
same,ΔTm at 5 µM,[7],-0.2 °C
same,ΔTm at 10 µM,[7],0.1 °C
same,ΔTm at 20 µM,[7],0 °C
same,IC50,[4],7.1 µM
